Experiments:
[1] = target: PERK enzyme (Homo sapiens (Human), UniProt Q9NZJ5); experiment: Biochemical assay for PERK (coupled pyruvate kinase/lactate dehydrogenase); conditions: 1 mM ATP
Procedure: Activity of PERK kinase was determined spectroscopically using a coupled pyruvate kinase/lactate dehydrogenase assay that continuously monitors the ATP hydrolysis-dependent oxidation of NADH (e.g., Schindler et al. Science (2000) 289: 1938-1942). Assays were conducted in 384-well plates ([…] final volume) using 10 nM PERK (from Beryllium), 0.25 mg/mL Myelin Basic Protein substrate, 1.5 units pyruvate kinase, 2.1 units lactate dehydrogenase, 1 mM phosphoenol pyruvate, 0.28 mM NADH and 1 mM ATP in assay buffer (100 mM Tris, pH 7.5, 15 mM MgCl2, 0.5 mM DTT, 0.004% (w/v) BSA, and 0.004% Triton X-100). Inhibition of PERK was measured by adding serial diluted test compound (final assay concentration of 1% DMSO). A decrease in absorption at 340 nm was monitored continuously for 6 hours at 30° C. on a multi-mode microplate reader (BioTek). The reaction rate was calculated using the 2-3 h time frame. The reaction rate at each concentration of compound was converted to percent inhibition using controls (i.e., reaction with no test compound and reaction with a known inhibitor) and IC50 values were calculated using software routines in Prism (GraphPad software).

[2] = test system: ATF4 target genes in H929 multiple myeloma cells; experiment: H929 UPR/ISR target genes quantitative RT-PCR; assay type: cell-based
Procedure: H929 multiple myeloma cells (catalog #CRL-9068) multiple myeloma cells were obtained from the American Type Culture Collection (ATTC, Manassas, VA). Cells were grown in RPMI-1640 medium supplemented with 20% heat-inactivated fetal bovine serum (catalog #A3840002, ThermoFisher Scientific, Waltham, MA), 1% Penicillin/Streptomycin/L-Glutamine (catalog #10378016, ThermoFisher Scientific, Waltham, MA), and 0.05 mM 2-mercaptoethanol (catalog #21985-023, ThermoFisher Scientific, Waltham, MA) at 37° C., 5% CO2, and 95% humidity. Cells were expanded until reaching 70-95% confluency at which point they were subcultured or harvested for assay use. Cells were seeded in 6-well culture plate at 3.0×10^6 cells per well in 2 mL complete growth medium and incubated with indicated concentrations of Compound 2 at 37° C., 5% CO2, and 95% humidity for 4 h. At the end of the incubation, cells were washed with PBS (Sigma) and RNA was extracted using RNeasy® Plus Kits (Qiagen, Germantown, MD). cDNA was synthesized using the High-Capacity cDNA Reverse Transcription Kit (Applied Biosciences, Beverly Hills, CA), and quantitative PCR was performed on a QuantStudio 3 (Applied Biosciences) using TaqMan Assays (Table 1, Thermo) and TaqMan Fast Advanced Master Mix (Thermo) according to manufacturer's specifications.

[3] = test system: Follicular lymphoma cells; experiment: Cell proliferation, combination with standard of care, follicular lymphoma; assay type: cell-based; conditions: with 41 nM ibrutinib, 96 h, FIG. 6D; read-out: inhibition of cell proliferation IC50, combination treatment
Procedure: H929, RPMI8226, GA-10 and DoHH-2 cells (catalog #CRL-9068) were obtained from the American Type Culture Collection (ATTC, Manassas, VA). H929 Cells were maintained in RPMI-1640 medium supplemented with 20% heat-inactivated fetal bovine serum (catalog #A3840002, ThermoFisher Scientific, Waltham, MA), 1% Penicillin/Streptomycin/L-Glutamine (catalog #10378016, ThermoFisher Scientific, Waltham, MA), and 0.05 mM 2-mercaptoethanol (catalog #21985-023, ThermoFisher Scientific, Waltham, MA). […]
For cell proliferation assay appropriate number of cells (Forty thousand cells for H929. Twenty thousand cells for RPMI8226 and GA-10. Eight thousand cells for DoHH-2) were seeded per well in 200 μL in respective medium were dispensed into a 96-well black clear bottom plate. […] Plates were read on a Synergy2 or equivalent reader (Biotek, Winooski VT) using an excitation of 540 nm and an emission of 600 nm. At the end of the incubation of DoHH-2, cell viability was determined using CellTiter-Glo® assay (Promega, Madison, WI). Luminescence was measured using EnVision MultiLabel Reader (PerkinElmer, Waltham, MA). Data was analyzed using GraphPad Prism software (GraphPad, San Diego, CA) to calculate IC50 values.

[4] = test system: HT-1080 solid tumor spheroids; experiment: Spheroid proliferation assay, HT-1080; assay type: cell-based; conditions: Homo sapiens, HT-1080, 120 h; 5 days, FIG. 11C; read-out: inhibition of cell proliferation IC50, single agent
Procedure: Non Small Cell Lung Cancer (NSCLC) cell lines H358 (catalog #CRL-5807) and H2030 (catalog #CRL-5914), and fibrosarcoma line HT-1080 (catalog […]) were obtained from the American Type Culture Collect (ATTC, Manassas, VA). Cells were grown in RPMI-1640 medium supplemented with 10% heat-inactivated fetal bovine serum and 1% Penicillin/Streptomycin/L-Glutamine (Invitrogen, Carlsbad, CA) at 37° C., 5% CO2, and 95% humidity and maintained at 50-80% confluency until use. 500-1000 cells were plated in 96-well ultra-low attachment plates (Corning, Glendale, AZ) with complete growth media at 80 μL/well and incubated overnight at 37° C., 5% CO2, and 95% humidity to form spheroids. The next day, serial dilutions of test compounds were prepared in complete growth media and 20 μL/well media containing compound titers was added to spheroids in triplicate. Spheroids were then incubated with test compounds for 5 days under the same conditions. At the end of the incubation, spheroids were lysed with 100 μL/well CellTiter-Glo 3D Viability Assay (Promega, Madison, WI) and luminescence was detected using Synergy2 or equivalent reader (Biotek, Winooski, VT). Data was analyzed using GraphPad Prism software (GraphPad, San Diego, CA) to calculate IC50 values.

Chain of PERK enzyme (Q9NZJ5 other isoform, or with tags, fused parts or gaps): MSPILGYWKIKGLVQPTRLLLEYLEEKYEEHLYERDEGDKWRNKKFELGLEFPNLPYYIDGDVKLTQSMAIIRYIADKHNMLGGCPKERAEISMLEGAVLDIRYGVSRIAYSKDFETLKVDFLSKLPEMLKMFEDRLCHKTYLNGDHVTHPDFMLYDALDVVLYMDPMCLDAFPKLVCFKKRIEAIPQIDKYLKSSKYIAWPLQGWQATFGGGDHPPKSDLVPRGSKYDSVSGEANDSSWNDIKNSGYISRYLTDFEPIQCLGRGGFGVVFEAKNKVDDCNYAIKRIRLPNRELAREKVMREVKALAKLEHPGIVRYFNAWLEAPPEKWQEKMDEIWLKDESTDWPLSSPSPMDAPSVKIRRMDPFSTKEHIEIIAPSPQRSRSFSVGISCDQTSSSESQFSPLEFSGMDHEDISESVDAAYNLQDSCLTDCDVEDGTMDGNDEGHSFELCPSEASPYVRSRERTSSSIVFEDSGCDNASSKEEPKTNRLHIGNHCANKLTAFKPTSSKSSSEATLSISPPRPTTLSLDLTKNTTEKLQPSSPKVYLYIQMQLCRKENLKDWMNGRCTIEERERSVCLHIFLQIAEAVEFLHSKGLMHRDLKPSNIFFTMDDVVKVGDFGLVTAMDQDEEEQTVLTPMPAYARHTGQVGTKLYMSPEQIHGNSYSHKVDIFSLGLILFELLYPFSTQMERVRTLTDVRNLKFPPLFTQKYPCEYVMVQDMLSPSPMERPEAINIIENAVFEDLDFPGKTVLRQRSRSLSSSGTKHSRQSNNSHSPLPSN

Question: With `Cn1cc(-c2cccc(NS(=O)(=O)c3cc(Cl)cc(CO)c3Cl)c2F)c2c(N)ncnc21` [Example 2, N-(3-(4-amino-7-methyl-7H-pyrrolo[2,3-d]pyrimidin-5-yl)-2-fluorophenyl)-2,5-dichloro-3-(hydroxymethyl)benzenesulfonamide] as the compound, how does the IC50 [1] read?
Answer: ≤ 100 nM

Question: And the “maximum stimulation for ATF4 (gene expression)” value ([2]; 4 h, fold change over DMSO)?
Answer: ~3 folds

Question: And the “maximum stimulation for CHOP (gene expression)” value ([2]; 4 h, fold change over DMSO)?
Answer: ~10 folds

Question: And the “maximum stimulation for GADD34 (gene expression)” value ([2]; 4 h, fold change over DMSO)?
Answer: ~3 folds

Question: And the “maximum stimulation for GPT2 (gene expression)” value ([2]; 4 h, fold change over DMSO)?
Answer: ~3

Question: What about the “maximum stimulation for VEGFA (gene expression)” value ([2]; 4 h, fold change over DMSO) of the same compound?
Answer: ~2 folds

Question: What about the “concentrations at which ATF4 target gene expression reverted to basal levels” value ([2]; FIG. 4, inhibitory phase) of the same compound?
Answer: ≥ 370 nM

Question: What about the IC50 [3] of the same compound?
Answer: 4 nM

Question: And the IC50 [4]?
Answer: 12 nM
